One series concerns the target T1, OCT2 variant R400C (Homo sapiens, UniProt O15244, R400C/S270A).
T1 sequence (O15244 1-555 S270A/R400C): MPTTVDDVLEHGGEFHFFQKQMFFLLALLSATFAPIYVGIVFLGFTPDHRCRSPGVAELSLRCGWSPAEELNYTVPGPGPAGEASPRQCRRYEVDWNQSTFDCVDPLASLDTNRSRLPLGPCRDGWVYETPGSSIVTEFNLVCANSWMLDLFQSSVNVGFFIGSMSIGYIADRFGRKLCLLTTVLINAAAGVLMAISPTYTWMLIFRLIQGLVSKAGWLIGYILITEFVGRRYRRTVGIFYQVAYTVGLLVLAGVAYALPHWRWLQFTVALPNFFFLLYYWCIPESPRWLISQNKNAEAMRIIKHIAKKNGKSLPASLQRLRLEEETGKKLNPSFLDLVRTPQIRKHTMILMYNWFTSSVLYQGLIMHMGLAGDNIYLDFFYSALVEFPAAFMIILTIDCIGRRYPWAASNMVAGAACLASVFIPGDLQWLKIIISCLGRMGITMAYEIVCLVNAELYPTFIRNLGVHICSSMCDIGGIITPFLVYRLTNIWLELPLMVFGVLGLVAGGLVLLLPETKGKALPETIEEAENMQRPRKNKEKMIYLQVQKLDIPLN
In words: Specific uptake into HEK-293 cells transfected with OCT2 variant R400C (mutant 400C). Particulars: for Clin: incubation with 10 µmol/l. On the procedure: The cDNAs encoding the organic cation transporters OCT1 (GenBank accession no. NM_003057), OCT2 (NM_003058), and EMT (NM_021977) were amplified by RT-PCR from human liver, kidney, and placenta total RNA respectively, and subcloned into the eukaryotic expression vector pcDNA3. The cDNA encoding the norepinephrine transporter (SLC6A2) was kindly provided by C. Pifl (University of Vienna).
For uptake experiments, cells were grown on polystyrene dishes of 60 mm diameter to at least 80% confluence. Prior to addition of test compounds, culture medium was replaced by 3 ml HEPES-modified Krebs buffer (140.0 mmol/l NaCl, 5.0 mmol/l KCl, 2.0 mmol/l CaCl2, 1.0 mmol/l MgCl2, 10.0 mmol/l HEPES, and 5.0 mmol/l D-glucose, adjusted to pH 7.40), and cells were left to equilibrate for 60 min at 37°C. Uptake was terminated after indicated times by washing cells with ice-cold buffer. Cells were lysed with 1 ml of 4 mmol/l perchloric acid and lysates subjected to LC-MS-MS quantification. Cellular protein content was determined after solubilization of perchloric acid precipitates with 1 ml of […] NaOH using the bicinchoninic assay (BCA Protein Assay Kit, Pierce).
Chromatographic separations were performed on Hypercarb (5 µm, 50×2.1 mm; Thermo Electron), Aquasil C18 (3 µm, 100×4.6 mm; Thermo Electron), or Hilic columns (5 µm, 100×3.0 mm; Waters Atlantis) by isocratic or gradient elution using 0.1% aqueous formic acid (A) and acetonitrile or methanol (B) as solvent system. For quantification, SRM transitions of a precursor ion [M+H]^+ into a specific fragment ion (peak area ratios relative to IS) were recorded in positive ESI mode at 1.0–1.5 mTorr collision pressure and 10–40 eV collision energy. External calibration curves were obtained from serial dilutions of the analyte in 4 mmol/l HClO4 by linear or logistic regression. Detection limit was at least 0.001 nmol/mg protein.
Uptake versus time data were fitted by linear one-compartment kinetics: cin(t) = cin,∞·(1−e^−kex·t), where cin(t) represents intracellular free substrate concentration after time t (pmol/mg protein), cin,∞ extrapolated maximal intracellular free substrate concentration (pmol/mg protein), and kex efflux rate constant (1/min). Influx clearance was calculated as CLin = cin,∞/cex·kex (µl/mg protein/min), with cex extracellular free substrate concentration (pmol/µl). Statistical significance of differences between two treatments was evaluated by the unpaired two-tailed t-test or Mann-Whitney U-test, differences between more than two treatments by one-way ANOVA or Kruskal-Wallis test, as applicable. P<0.05 was considered statistically significant.

The conditions of series [1]: weak bases; cited from earlier work.
The target of another series is T2, OCT2 (Homo sapiens, UniProt O15244, S270A).
T2 sequence (O15244 1-555 S270A): T1 sequence (O15244 1-555 S270A/R400C) with C400R
Description: Substrate search: uptake from fetal bovine serum into OCT2-transfected vs control HEK-293 cells, ESI-LC-MS-MS. Particulars: 30 min incubation with 100% fetal bovine serum, OCT2 vs HEK-293 cells without OCT2.

In another series the test system is OCT1. In words: MTT reduction cell viability assay, OCT1-transfected HEK-293 cells. The series is classed as cell-based. Particulars: human, HEK-293 cells transfected with OCT1; 48 h exposure; read-out: EC50 (95% confidence interval), cell viability.
In series [2] the test system is HEK-293 cells expressing EMT. In words: MTT reduction cell viability assay, EMT-transfected HEK-293 cells. It counts as cell-based. Particulars: Homo sapiens, HEK293; 48 h exposure; read-out: EC50 (95% confidence interval), cell viability.
For a further series, the system named is OCT2 mutant 400C variant. Description: MTT reduction cell viability assay, HEK-293 cells expressing OCT2 mutant 400C variant. It counts as cell-based. Particulars: human, 48 h exposure after 12 h incubation with cyclo(his-pro) 10 µmol/l, read-out: EC50 (95% confidence interval), cell viability.
Another series deals with T3, OCT2 (wild-type 400R) (Homo sapiens, UniProt O15244, S270A).
T3 sequence (O15244 1-555 S270A): T1 sequence (O15244 1-555 S270A/R400C) with C400R
Description: Specific uptake into OCT2 (wild-type) transfected HEK-293 cells vs empty vector, LC-MS-MS. Particulars: human, pH 7.4.

Structures are written as SMILES. Substitutions are numbered along the chain they refer to. Marks after values point to notes of the source that are not given here.

As to `O=C1NC(Cc2c[nH]cn2)C(=O)N2CCCC12` (stereo not drawn) [cyclo(his-pro), histidyl-proline diketopiperazine], the Vmax on OCT2 variant R400C (1 min of loading, mean (s.e.m.), listed as CHP) was 1.0 (0.1) nmol/mg/min. Also, at OCT2 variant R400C (400C vs wild-type 400R), the “clearance (Clin) of 400C relative to the 400R reference” value was determined as 70% and the “transport efficiency (Vmax/Km) of 400C relative to the 400R reference” value came out at 48%. Further, the Clin on OCT2 variant R400C (mean (s.e.m.)) is listed as 17.6 (1.5)^# µl/mg/min. The Clin on OCT2 variant R400C (mean (s.e.m.), listed as CHP) was 17.6 (1.5) µl/mg/min. Moreover, the pKS in series [1] was 6.5–7.5. For the same compound, on OCT2, the “specific uptake from serum, fold above the control” value is listed as > 2 fold.
For the compound `CC1NCCc2cc(O)c(O)cc21` (stereo not drawn) [salsolinol], the Michaelis-Menten constant (Km) at 1 min at OCT2 variant R400C (human, pH 7.4) is 123 µM; on OCT2 (wild-type 400R) it was 130 µM. For the same compound, the EC50 at 48 h with OCT1 was 627 µM; in the series on OCT2 mutant 400C variant, 406 µM. Besides, the concentration giving a half-maximal response (EC50) in series [2] was 998 µM.

The values above are taken from PMC1851987, “Identification of the Endogenous Key Substrates of the Human Organic Cation Transporter OCT2 and Their Implication in Function of Dopaminergic Neurons” (PLoS ONE, 2007).
